According to patent US20140005163A1 (NOVARTIS AG, priority 2010, published 2014):
pIC50: −log10 of the molar value.

Assays:
Format in all cases: biochemical
PI3K beta = biological target: T1, PI3K beta (Homo sapiens, UniProt P42338); experiment: PI3K beta kinase assay (Kinase-Glo luminescence)
T1 construct: for the full-length p110-b subunit are generated and fused by overlapping PCR; p85(iSH2) fusion partner (see partner chain) (N); His tag (C); made in house; host or cells: baculovirus; Tn5 (Trichoplusia ni) or TiniPro insect cells
T1 sequence (P42338 with tags, fused parts or gaps limits assumed): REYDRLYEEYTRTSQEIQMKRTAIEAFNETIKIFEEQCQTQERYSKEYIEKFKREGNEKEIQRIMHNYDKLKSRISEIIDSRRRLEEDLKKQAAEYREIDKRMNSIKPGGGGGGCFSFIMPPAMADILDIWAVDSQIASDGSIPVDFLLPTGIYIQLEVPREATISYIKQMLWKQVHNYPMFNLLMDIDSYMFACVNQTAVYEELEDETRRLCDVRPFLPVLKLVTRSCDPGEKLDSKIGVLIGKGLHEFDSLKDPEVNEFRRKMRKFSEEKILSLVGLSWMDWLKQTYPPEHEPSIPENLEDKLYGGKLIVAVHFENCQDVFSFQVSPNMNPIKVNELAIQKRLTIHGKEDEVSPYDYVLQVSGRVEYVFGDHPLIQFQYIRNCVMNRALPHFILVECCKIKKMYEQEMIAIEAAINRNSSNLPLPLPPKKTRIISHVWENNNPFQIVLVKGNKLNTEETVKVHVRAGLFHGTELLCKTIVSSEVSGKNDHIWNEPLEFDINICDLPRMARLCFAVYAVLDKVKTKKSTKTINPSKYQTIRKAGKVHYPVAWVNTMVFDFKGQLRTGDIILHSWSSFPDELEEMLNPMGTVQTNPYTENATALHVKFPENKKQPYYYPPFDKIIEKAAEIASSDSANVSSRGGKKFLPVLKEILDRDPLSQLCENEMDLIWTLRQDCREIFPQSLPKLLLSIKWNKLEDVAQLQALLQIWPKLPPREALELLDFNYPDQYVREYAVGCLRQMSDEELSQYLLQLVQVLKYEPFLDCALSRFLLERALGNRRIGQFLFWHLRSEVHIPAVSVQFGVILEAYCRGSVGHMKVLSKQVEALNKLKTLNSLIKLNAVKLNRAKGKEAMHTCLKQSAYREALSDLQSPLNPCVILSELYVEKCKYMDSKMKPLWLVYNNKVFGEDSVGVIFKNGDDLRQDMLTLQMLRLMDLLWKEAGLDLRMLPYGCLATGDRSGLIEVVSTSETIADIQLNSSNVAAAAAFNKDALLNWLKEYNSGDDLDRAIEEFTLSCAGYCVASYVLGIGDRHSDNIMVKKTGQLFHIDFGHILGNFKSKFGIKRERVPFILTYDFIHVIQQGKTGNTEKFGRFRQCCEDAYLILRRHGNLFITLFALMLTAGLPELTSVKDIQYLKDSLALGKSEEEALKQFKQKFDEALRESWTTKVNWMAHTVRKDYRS
How it was run: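 p110β full-length/p85 iSH2 construct (BV-949), 25 nM, with 1 μM ATP and 10 μg/mL phosphatidylinositol in 10 mM Tris pH 7.5, 3 mM MgCl2, 50 mM NaCl, 0.05% CHAPS, 1 mM DTT. 60 min at room temperature; ATP remaining read by Kinase-Glo luminescence. IC50 from 8-point four-parameter logistic fit.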

PI3K delta = biological target: T2, PI3K delta (Homo sapiens, UniProt O00329); experiment: PI3K delta kinase assay (Kinase-Glo luminescence)
T2 construct: for the full-length p110-d subunit are generated and fused by overlapping PCR; p85(iSH2) fusion partner (see partner chain) (N); His tag (C); made in house; host or cells: baculovirus; Tn5 (Trichoplusia ni) or TiniPro insect cells
T2 sequence (O00329 with tags, fused parts or gaps limits assumed): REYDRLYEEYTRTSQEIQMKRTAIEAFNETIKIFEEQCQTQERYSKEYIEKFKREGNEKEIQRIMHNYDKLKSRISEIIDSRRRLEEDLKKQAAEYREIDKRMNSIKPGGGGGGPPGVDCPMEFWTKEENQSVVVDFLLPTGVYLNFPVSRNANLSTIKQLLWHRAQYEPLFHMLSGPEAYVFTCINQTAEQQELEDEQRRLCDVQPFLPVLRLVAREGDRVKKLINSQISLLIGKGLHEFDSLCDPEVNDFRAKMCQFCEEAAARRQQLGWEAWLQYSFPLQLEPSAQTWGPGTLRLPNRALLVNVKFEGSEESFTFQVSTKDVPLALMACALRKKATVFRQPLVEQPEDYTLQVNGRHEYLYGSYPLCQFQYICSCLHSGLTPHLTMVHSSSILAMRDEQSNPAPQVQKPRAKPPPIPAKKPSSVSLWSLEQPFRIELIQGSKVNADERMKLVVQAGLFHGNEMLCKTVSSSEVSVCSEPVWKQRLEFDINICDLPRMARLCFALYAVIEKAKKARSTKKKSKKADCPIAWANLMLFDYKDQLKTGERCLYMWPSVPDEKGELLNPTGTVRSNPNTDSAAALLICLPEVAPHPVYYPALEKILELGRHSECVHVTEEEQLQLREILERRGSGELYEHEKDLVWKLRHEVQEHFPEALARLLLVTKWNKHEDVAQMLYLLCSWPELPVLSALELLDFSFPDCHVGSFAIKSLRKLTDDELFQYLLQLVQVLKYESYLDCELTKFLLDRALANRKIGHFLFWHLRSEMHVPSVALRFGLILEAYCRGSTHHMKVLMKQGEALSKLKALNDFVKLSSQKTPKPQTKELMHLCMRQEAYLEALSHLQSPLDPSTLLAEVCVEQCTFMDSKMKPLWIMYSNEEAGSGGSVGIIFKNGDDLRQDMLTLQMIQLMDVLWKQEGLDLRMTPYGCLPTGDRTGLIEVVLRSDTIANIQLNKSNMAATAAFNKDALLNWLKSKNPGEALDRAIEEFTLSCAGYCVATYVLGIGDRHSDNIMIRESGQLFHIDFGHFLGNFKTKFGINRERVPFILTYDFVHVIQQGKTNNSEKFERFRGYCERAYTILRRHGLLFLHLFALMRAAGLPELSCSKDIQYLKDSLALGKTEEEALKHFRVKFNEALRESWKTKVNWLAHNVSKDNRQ
How it was run: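 ATP 1 μM, PI 10 μg/mL, PI3Kδ construct BV1060 10 nM (final); 10 mM Tris pH 7.5, 3 mM MgCl2, 50 mM NaCl, 0.05% CHAPS, 1 mM DTT; 60 min RT; Kinase-Glo stop, luminescence.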

PI3K gamma = biological target: T3, PI3K gamma (Homo sapiens, UniProt P48736); experiment: PI3K gamma kinase assay (Kinase-Glo luminescence)
T3 construct: His tag (C); made in house; host or cells: baculovirus (pVL1393); Tn5 or TiniPro insect cells; construct from Roger Williams lab, MRC LMB
T3 sequence (P48736 144-1102 limits assumed): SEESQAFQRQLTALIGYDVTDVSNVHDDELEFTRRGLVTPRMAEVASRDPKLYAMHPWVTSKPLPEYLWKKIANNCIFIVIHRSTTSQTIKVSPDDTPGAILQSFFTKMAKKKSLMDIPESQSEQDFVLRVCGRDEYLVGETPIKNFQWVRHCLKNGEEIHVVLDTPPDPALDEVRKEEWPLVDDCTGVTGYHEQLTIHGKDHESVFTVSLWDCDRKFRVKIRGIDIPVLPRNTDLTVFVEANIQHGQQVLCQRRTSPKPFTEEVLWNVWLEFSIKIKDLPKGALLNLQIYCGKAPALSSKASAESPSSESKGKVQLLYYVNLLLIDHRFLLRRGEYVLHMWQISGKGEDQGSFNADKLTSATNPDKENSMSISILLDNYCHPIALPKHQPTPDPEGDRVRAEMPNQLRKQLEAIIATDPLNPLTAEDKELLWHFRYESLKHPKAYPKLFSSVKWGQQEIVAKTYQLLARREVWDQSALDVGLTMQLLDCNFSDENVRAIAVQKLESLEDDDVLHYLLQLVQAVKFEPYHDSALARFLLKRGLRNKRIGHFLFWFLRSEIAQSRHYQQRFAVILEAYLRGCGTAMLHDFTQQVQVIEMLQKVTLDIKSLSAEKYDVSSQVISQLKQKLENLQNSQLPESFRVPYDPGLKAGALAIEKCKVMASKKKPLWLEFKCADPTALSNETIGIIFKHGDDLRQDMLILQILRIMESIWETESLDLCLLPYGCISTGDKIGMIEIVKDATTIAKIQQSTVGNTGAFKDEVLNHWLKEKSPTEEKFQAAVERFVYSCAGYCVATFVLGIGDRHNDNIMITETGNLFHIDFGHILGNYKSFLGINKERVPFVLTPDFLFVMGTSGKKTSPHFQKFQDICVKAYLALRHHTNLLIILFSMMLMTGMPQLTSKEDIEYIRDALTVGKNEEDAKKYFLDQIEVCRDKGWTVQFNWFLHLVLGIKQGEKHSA
How it was run: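 Luminescent ATP-depletion (Kinase-Glo) assay with 150 nM PI3Kγ, 1 μM ATP and 10 μg/mL phosphatidylinositol in 10 mM Tris-HCl pH 7.5, 3 mM MgCl2, 50 mM NaCl, 0.05% CHAPS, 1 mM DTT; 120 min at room temperature. Eight-point dilutions; IC50 by four-parameter logistic fit.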

Row | Structure (SMILES) | pIC50 (PI3K beta) | pIC50 (PI3K delta) | pIC50 (PI3K gamma)
1 | Cc1nn(CC(=O)N(C)C)cc1-n1c(=O)n(C)c2cnc3ccc(-c4ccc(-n5cccn5)cc4)cc3c21 [Example 51.2, N,N-Dimethyl-2-{3-methyl-4-[3-methyl-2-oxo-8-(4-pyrazol-1-yl-phenyl)-2,3-dihydro-imidazo[4,5-c]quinolin-1-yl]-pyrazol-1-yl}-acetamide] | – | 6.34 | 6.86
2 | COc1ccc(-c2ccc3ncc4c(c3n2)n(-c2cc(C)nn2C)c(=O)n4C)cc1OC [Example 253, 8-(3,4-Dimethoxy-phenyl)-1-(2,5-dimethyl-2H-pyrazol-3-yl)-3-methyl-1,3-dihydro-1,3,5,9-tetraaza-cyclopenta[a]naphthalen-2-one] | 8.10 | 8.30 | 7.06
3 | CCOc1ccc(-c2ccc3ncc4c(c3c2)n(-c2cn(CC(=O)N3CCOCC3)nc2C)c(=O)n4C)cn1 [Example 3.10, 8-(6-Ethoxy-pyridin-3-yl)-3-methyl-1-[3-methyl-1-(2-morpholin-4-yl-2-oxo-ethyl)-1H-pyrazol-4-yl]-1,3-dihydro-imidazo[4,5-c]quinolin-2-one] | – | 6.37 | 6.06
4 | COCCOc1cncc(-c2ccc3ncc4c(c3c2)n(-c2cn(C)nc2C)c(=O)n4C)c1 [Example 59.1, 1-(1,3-Dimethyl-1H-pyrazol-4-yl)-8-[5-(2-methoxy-ethoxy)-pyridin-3-yl]-3-methyl-1,3-dihydro-imidazo[4,5-c]quinolin-2-one] | 7.05 | 7.04 | 6.75
5 | Cc1ccc(-c2ccc3ncc4c(c3c2)n(-c2cn(C)nc2C)c(=O)n4C)cn1 [Example 7.2, 1-(1,3-Dimethyl-1H-pyrazol-4-yl)-3-methyl-8-(6-methyl-pyridin-3-yl)-1,3-dihydro-imidazo[4,5-c]quinolin-2-one] | 7.18 | 7.89 | 6.72
6 | Cc1nn(C)c(C)c1-n1c(=O)n(C)c2cnc3ccc(-c4cccc(O)c4)cc3c21 [Example 32.2, 8-(3-Hydroxy-phenyl)-3-methyl-1-(1,3,5-trimethyl-1H-pyrazol-4-yl)-1,3-dihydro-imidazo[4,5-c]quinolin-2-one] | 6.78 | 7.42 | 6.80
7 | COc1ccc(-c2ccc3ncc4c(c3c2)n(-c2c(C)nn(C)c2C)c(=O)n4C)cn1 [Example 2.4, 8-(6-Methoxy-pyridin-3-yl)-3-methyl-1-(1,3,5-trimethyl-1H-pyrazol-4-yl)-1,3-dihydro-imidazo[4,5-c]quinolin-2-one] | 6.92 | 7.48 | 6.70
8 | COc1ccc(-c2ccc3ncc4c(c3c2)n(-c2cn(CCO)nc2C)c(=O)n4C)cn1 [Example 103.1, 1-[1-(2-Hydroxy-ethyl)-3-methyl-1H-pyrazol-4-yl]-8-(6-methoxy-pyridin-3-yl)-3-methyl-1,3-dihydro-imidazo[4,5-c]quinolin-2-one] | 7.00 | 7.72 | 6.72
9 | CCn1c(=O)n(-c2cn(C)nc2C)c2c3nc(-c4ccc(OC)c(OC)c4)ccc3ncc21 [Example 251, 8-(3,4-Dimethoxy-phenyl)-1-(1,3-dimethyl-1H-pyrazol-4-yl)-3-ethyl-1,3-dihydro-1,3,5,9-tetraaza-cyclopenta[a]naphthalen-2-one] | 6.30 | 6.77 | 6.67
10 | CCOc1ncc(-c2ccc3ncc4c(c3c2)n(-c2cn(C)nc2C)c(=O)n4C)cn1 [Example 52, 1-(1,3-Dimethyl-1H-pyrazol-4-yl)-8-(2-ethoxy-pyrimidin-5-yl)-3-methyl-1,3-dihydro-imidazo[4,5-c]quinolin-2-one] | 6.46 | 7.43 | 6.22
11 | CNC(=O)c1ccc(-c2ccc3ncc4c(c3c2)n(-c2cn(C)nc2C)c(=O)n4C)cn1 [Example 15.1, 5-[1-(1,3-Dimethyl-1H-pyrazol-4-yl)-3-methyl-2-oxo-2,3-dihydro-1H-imidazo[4,5-c]quinolin-8-yl]-pyridine-2-carboxylic acid methylamide] | 6.59 | 6.59 | 6.28
12 | CNC(=O)c1cc(-c2ccc3ncc4c(c3c2)n(-c2cn(C)nc2C)c(=O)n4C)cnc1N [Example 224.1, 2-Amino-5-[1-(1,3-dimethyl-1H-pyrazol-4-yl)-3-methyl-2-oxo-2,3-dihydro-1H-imidazo[4,5-c]quinolin-8-yl]-N-methyl-nicotinamide] | 7.21 | 7.54 | –
13 | Cn1cc(-n2c(=O)n(C)c3cnc4ccc(-c5cnc(N)c(CO)c5)cc4c32)c(Cl)n1 [Example 169.3, 8-(6-Amino-5-hydroxymethyl-pyridin-3-yl)-1-(3-chloro-1-methyl-1H-pyrazol-4-yl)-3-methyl-1,3-dihydro-imidazo[4,5-c]quinolin-2-one] | 8.15 | > 8.52 | –
14 | COC(C)(C)c1cncc(-c2ccc3ncc4c(c3c2)n(-c2cn(C)nc2C)c(=O)n4C)c1 [Example 239, 1-(1,3-Dimethyl-1H-pyrazol-4-yl)-8-[5-(1-methoxy-1-methyl-ethyl)-pyridin-3-yl]-3-methyl-1,3-dihydro-imidazo[4,5-c]quinolin-2-one] | 7.89 | 8.52 | –
15 | Cc1nn(C)cc1-n1c(=O)n(C)c2cnc3ccc(-c4cnc5c(c4)C(C)(C)C(=O)N5C)cc3c21 [Example 233, 1-(1,3-Dimethyl-1H-pyrazol-4-yl)-3-methyl-8-(1,3,3-trimethyl-2-oxo-2,3-dihydro-1H-pyrrolo[2,3-b]pyridin-5-yl)-1,3-dihydro-imidazo[4,5-c]quinolin-2-one] | 7.41 | 7.82 | –

More lines, now with the values ahead:

Row | pIC50 (PI3K beta) | pIC50 (PI3K delta) | pIC50 (PI3K gamma) | Structure (SMILES)
16 | 6.89 | 7.44 | 6.19 | COCCn1c(=O)n(C)c2ncc(-c3ccc4ncc5c(c4c3)n(-c3cn(C)nc3C)c(=O)n5C)cc21 [Example 69, 1-(1,3-Dimethyl-1H-pyrazol-4-yl)-8-[1-(2-methoxy-ethyl)-3-methyl-2-oxo-2,3-dihydro-1H-imidazo[4,5-b]pyridin-6-yl]-3-methyl-1,3-dihydro-imidazo[4,5-c]quinolin-2-one]
17 | 6.92 | 7.70 | 6.41 | CCn1cc(-n2c(=O)n(C)c3cnc4ccc(-c5cnc(OC)nc5)cc4c32)c(C)n1 [Example 17.1, 1-(1-Ethyl-3-methyl-1H-pyrazol-4-yl)-8-(2-methoxy-pyrimidin-5-yl)-3-methyl-1,3-dihydro-imidazo[4,5-c]quinolin-2-one]
18 | – | 7.28 | 6.64 | Cc1nn(C(C)C)cc1-n1c(=O)n(C)c2cnc3ccc(-c4ccc(N5CCC5)nc4)cc3c21 [Example 5.2, 8-(6-Azetidin-1-yl-pyridin-3-yl)-1-(1-isopropyl-3-methyl-1H-pyrazol-4-yl)-3-methyl-1,3-dihydro-imidazo[4,5-c]quinolin-2-one]
19 | 6.78 | 7.25 | 6.84 | CCOc1ccc(-c2ccc3ncc4c(c3c2)n(-c2c(C)nn(C)c2C)c(=O)n4C)cc1OC [Example 29.2, 8-(4-Ethoxy-3-methoxy-phenyl)-3-methyl-1-(1,3,5-trimethyl-1H-pyrazol-4-yl)-1,3-dihydro-midazo[4,5-c]quinolin-2-one]
20 | 6.42 | 7.01 | 6.85 | Cc1nn(C)c(C)c1-n1c(=O)n(C)c2cnc3ccc(-c4ccc(N(C)C)nc4)cc3c21 [Example 4.3, 8-(6-Dimethylamino-pyridin-3-yl)-3-methyl-1-(1,3,5-trimethyl-1H-pyrazol-4-yl)-1,3-dihydro-imidazo[4,5-c]quinolin-2-one]
21 | 6.71 | 7.37 | – | Cc1nn(C(C)C)cc1-n1c(=O)n(C)c2cnc3ccc(-c4ccc(N)nc4)cc3c21 [Example 23.2, 8-(6-Amino-pyridin-3-yl)-1-(1-isopropyl-3-methyl-1H-pyrazol-4-yl)-3-methyl-1,3-dihydro-imidazo[4,5-c]quinolin-2-one]
22 | 6.42 | 7.38 | – | CCOc1ccc(-c2ccc3ncc4c(c3c2)n(-c2cn(CC(=O)N3CCC3)nc2C)c(=O)n4C)cn1 [Example 138, 1-[1-(2-Azetidin-1-yl-2-oxo-ethyl)-3-methyl-1H-pyrazol-4-yl]-8-(6-ethoxy-pyridin-3-yl)-3-methyl-1,3-dihydro-imidazo[4,5-c]quinolin-2-one]
23 | 8.40 | 8.40 | – | Cc1nn(C)cc1-n1c(=O)n(C)c2cnc3ccc(-c4cncc(OC(F)F)c4)cc3c21 [Example 183, 8-(5-Difluoromethoxy-pyridin-3-yl)-1-(1,3-dimethyl-1H-pyrazol-4-yl)-3-methyl-1,3-dihydro-imidazo[4,5-c]quinolin-2-one]
24 | 6.48 | 7.15 | – | CCOc1ccc(-c2ccc3ncc4c(c3c2)n(-c2cn(CCO)nc2C)c(=O)n4C)cn1 [Example 103.2, 8-(6-Ethoxy-pyridin-3-yl)-1-[1-(2-hydroxy-ethyl)-3-methyl-1H-pyrazol-4-yl]-3-methyl-1,3-dihydro-imidazo[4,5-c]quinolin-2-one]
